Experimental data published in patent US20130303507A1 (Novartis AG, priority 2011, published 2013).

Molecular target: Cdk9/cyclinT1 (Homo sapiens, UniProt P50750)
Assay: Cdk9/cyclinT1 IMAP protocol (fluorescence polarization)
Settings: IC-50, CDK9; lower limit of assay 0.0005 micromolar

Chain of Cdk9/cyclinT1 (P50750 whole entry): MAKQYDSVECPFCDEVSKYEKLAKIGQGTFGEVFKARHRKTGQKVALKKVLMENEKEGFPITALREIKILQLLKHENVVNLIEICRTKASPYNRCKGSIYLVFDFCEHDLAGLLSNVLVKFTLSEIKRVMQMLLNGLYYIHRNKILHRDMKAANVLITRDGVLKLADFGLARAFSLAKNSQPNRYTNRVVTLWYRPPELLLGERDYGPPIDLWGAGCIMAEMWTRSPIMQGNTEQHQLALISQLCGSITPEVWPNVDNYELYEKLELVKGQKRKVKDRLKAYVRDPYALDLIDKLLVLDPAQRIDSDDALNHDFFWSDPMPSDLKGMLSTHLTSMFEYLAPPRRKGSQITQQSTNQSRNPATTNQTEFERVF
Chain of Cdk9/cyclinT1 (O60563 whole entry partner): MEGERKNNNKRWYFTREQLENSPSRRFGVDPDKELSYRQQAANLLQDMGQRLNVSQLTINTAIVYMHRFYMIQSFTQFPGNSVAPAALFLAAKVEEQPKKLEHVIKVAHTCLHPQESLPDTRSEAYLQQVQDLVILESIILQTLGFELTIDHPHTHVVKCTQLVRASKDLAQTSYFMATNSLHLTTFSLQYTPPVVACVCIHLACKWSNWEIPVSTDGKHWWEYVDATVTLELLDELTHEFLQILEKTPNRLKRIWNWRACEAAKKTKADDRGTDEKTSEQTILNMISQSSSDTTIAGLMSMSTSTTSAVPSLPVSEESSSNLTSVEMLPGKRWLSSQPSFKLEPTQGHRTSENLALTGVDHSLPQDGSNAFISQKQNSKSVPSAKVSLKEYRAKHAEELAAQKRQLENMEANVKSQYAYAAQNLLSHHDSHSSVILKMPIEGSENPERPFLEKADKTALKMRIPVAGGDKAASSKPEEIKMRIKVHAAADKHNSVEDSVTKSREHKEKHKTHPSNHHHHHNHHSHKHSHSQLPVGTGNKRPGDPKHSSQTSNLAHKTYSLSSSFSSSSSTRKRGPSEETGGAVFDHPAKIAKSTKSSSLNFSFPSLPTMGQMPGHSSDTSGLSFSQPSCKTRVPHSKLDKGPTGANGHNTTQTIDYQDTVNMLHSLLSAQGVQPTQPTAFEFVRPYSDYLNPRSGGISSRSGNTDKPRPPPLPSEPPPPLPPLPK

N#CC1(CNc2cccc(-c3cc(N[C@H]4CC[C@H](NCC5(C#N)CC5)CC4)ncc3Cl)n2)CCOCC1 [Compound 414, 4-(((5′-chloro-2′-((trans-4-(((1-cyanocyclopropyl)methyl)amino)cyclohexyl)amino)-[2,4′-bipyridin]-6-yl)amino)methyl)tetrahydro-2H-pyran-4-carbonitrile]
IC50: < 0.5 nM

N#CC1(CNc2cccc(-c3cc(N[C@H]4CC[C@@H](N5CCNC(=O)C5)CC4)ncc3Cl)n2)CCOCC1 [Compound 418, 4-(((5′-chloro-2′-((cis-4-(3-oxopiperazin-1-yl)cyclohexyl)amino)-[2,4′-bipyridin]-6-yl)amino)methyl)tetrahydro-2H-pyran-4-carbonitrile]
IC50: 8.5 nM

N#CC1(CNc2cccc(-c3cc(N[C@H]4CC[C@H](N)CC4)ncc3F)n2)CC1 [Compound 486, 1-(((2′-((trans-4-aminocyclohexyl)amino)-5′-fluoro-[2,4′-bipyridin]-6-yl)amino)methyl)cyclopropane-carbonitrile]
IC50: < 0.5 nM

C[C@@H]1CN([C@H]2CC[C@H](Nc3cc(-c4cccc(NCC5(C#N)CCOCC5)n4)c(Cl)cn3)CC2)C[C@H](C)O1 [Compound 426, 4-(((5′-chloro-2′-((trans-4-((2S,6R)-2,6-dimethylmorpholino)cyclohexyl)amino)-[2,4′-bipyridin]-6-yl)amino)methyl)tetrahydro-2H-pyran-4-carbonitrile]
IC50: ≤ 0.5 nM

CN(C)C(=O)CN[C@H]1CC[C@H](Nc2cc(-c3cccc(NCC4(C#N)CCOCC4)n3)c(Cl)cn2)CC1 [Compound 423, 2-((trans-4-((5′-chloro-6-(((4-cyanotetrahydro-2H-pyran-4-yl)methyl)amino)-[2,4′-bipyridin]-2′-yl)amino)cyclohexyl)amino)-N,N-dimethylacetamide]
IC50: < 0.5 nM

N#CCCN[C@H]1CC[C@H](Nc2cc(-c3cccc(NCC4CCOCC4)n3)c(Cl)cn2)CC1 [Compound 444, 3-((trans-4-((5′-chloro-6-(((tetrahydro-2H-pyran-4-yl)methyl)amino)-[2,4′-bipyridin]-2′-yl)amino)cyclohexyl)amino) propanenitrile]
IC50: 2.4 nM

NC(=O)C1(CNc2cccc(-c3cc(N[C@H]4CC[C@H](N)CC4)ncc3F)n2)CCOCC1 [Compound 485, 4-(((2′-((trans-4-aminocyclohexyl)amino)-5′-fluoro-[2,4′-bipyridin]-6-yl)amino)methyl)tetrahydro-2H-pyran-4-carboxamide]
IC50: 1.8 nM

CN(C)C(=O)NC[C@H]1CC[C@H](Nc2cc(-c3cccc(NCC4(C#N)CCOCC4)n3)c(Cl)cn2)CC1 [Compound 499, 3-((trans-4-((5′-chloro-6-(((4-cyanotetrahydro-2H-pyran-4-yl)methyl)amino)-[2,4′-bipyridin]-2′-yl)amino)cyclohexyl)methyl)-1,1-dimethylurea]
IC50: 0.6 nM

CN(C)C(=O)CN(CC(=O)N(C)C)[C@H]1CC[C@H](Nc2cc(-c3cccc(NCC4(C#N)CCOCC4)n3)c(Cl)cn2)CC1 [Compound 421, 2,2′-((trans-4-((5′-chloro-6-(((4-cyanotetrahydro-2H-pyran-4-yl)methyl)amino)-[2,4′-bipyridin]-2′-yl)amino)cyclohexyl)azanediyl) bis(N,N-dimethylacetamide)]
IC50: 2.7 nM

COCCO[C@H]1CC[C@H](Nc2cc(-c3cccc(NCC4(C#N)CCOCC4)n3)c(Cl)cn2)CC1 [Compound 415, 4-(((5′-chloro-2′-((trans-4-(2-methoxyethoxy)cyclohexyl)amino)-[2,4′-bipyridin]-6-yl)amino)methyl)tetrahydro-2H-pyran-4-carbonitrile]
IC50: 4.9 nM

CC1(CN[C@H]2CC[C@H](Nc3cc(-c4cccc(NCC5(C#N)CCOCC5)n4)c(Cl)cn3)CC2)COC1 [Compound 430, 4-(((5′-chloro-2′-((trans-4-(((3-methyloxetan-3-yl)methyl)amino)cyclohexyl)amino)-[2,4′-bipyridin]-6-yl)amino)methyl)tetrahydro-2H-pyran-4-carbonitrile]
IC50: 1 nM

N#CC1(CNc2cccc(-c3cc(N[C@H]4CC[C@H](NC[C@@H](O)C(F)(F)F)CC4)ncc3Cl)n2)CCOCC1 [Compound 491, 4-(((5′-chloro-2′-((trans-4-(((R)-3,3,3-trifluoro-2-hydroxypropyl)amino)cyclohexyl)amino)-[2,4′-bipyridin]-6-yl)amino)methyl)tetrahydro-2H-pyran-4-carbonitrile]
IC50: < 0.5 nM

N#CC1(CNc2cccc(-c3cc(N[C@H]4CC[C@@H](O)C4)ncc3Cl)n2)CCOCC1 (relative stereo) [Example 404]
IC50: < 0.5 nM

COCCN[C@H]1CC[C@H](Nc2cc(-c3ccc(F)c(NCC4(C)CCOCC4)n3)c(Cl)cn2)CC1 [Compound 481, 5′-chloro-5-fluoro-N2′-(trans-4-((2-methoxyethyl)amino)cyclohexyl)-N6-((4-methyltetrahydro-2H-pyran-4-yl)methyl)-[2,4′-bipyridine]-2′,6-diamine]
IC50: < 0.5 nM

COCCN[C@H]1CC[C@H](Nc2cc(-c3cncc(OCC4(C#N)CCOCC4)n3)c(Cl)cn2)CC1 [Compound 510, 4-(((6-(5-chloro-2-((trans-4-((2-methoxyethyl)amino)cyclohexyl)amino)pyridin-4-yl)pyrazin-2-yl)oxy)methyl)tetrahydro-2H-pyran-4-carbonitrile]
IC50: 1.3 nM

CO[C@@H]1CCN([C@H]2CC[C@H](Nc3cc(-c4cccc(NCC5(C#N)CCOCC5)n4)c(Cl)cn3)CC2)C1 [Compound 477, 4-(((5′-chloro-2′-((trans-4-((R)-3-methoxypyrrolidin-1-yl)cyclohexyl)amino)-[2,4′-bipyridin]-6-yl)amino)methyl)tetrahydro-2H-pyran-4-carbonitrile]
IC50: 0.8 nM

N#CC1(CNc2cccc(-c3cc(NC4CNC4)ncc3Cl)n2)CCOCC1 [Example 401]
IC50: 81 nM

N#CC1(CNc2cccc(-c3cc(NC4CCOCC4)ncc3Cl)n2)CCOCC1 [Compound 443, 4-(((5′-chloro-2′-((tetrahydro-2H-pyran-4-yl)amino)-[2,4′-bipyridin]-6-yl)amino)methyl)tetrahydro-2H-pyran-4-carbonitrile]
IC50: 1.7 nM

N#CC1(CNc2cccc(-c3cc(N[C@H]4CC[C@H](NC[C@H](O)C(F)(F)F)CC4)ncc3Cl)n2)CCOCC1 [Compound 490, 4-(((5′-chloro-2′-((trans-4-(((S)-3,3,3-trifluoro-2-hydroxypropyl)amino)cyclohexyl)amino)-[2,4′-bipyridin]-6-yl)amino)methyl)tetrahydro-2H-pyran-4-carbonitrile]
IC50: < 0.5 nM

C[C@H]1COCCN1[C@H]1CC[C@H](Nc2cc(-c3cccc(NCC4(C#N)CCOCC4)n3)c(Cl)cn2)CC1 [Compound 502, 4-((5′-chloro-2′-(trans-4-((S)-3-methylmorpholino)cyclohexyl-amino)-2,4′-bipyridin-6-ylamino)methyl)tetrahydro-2H-pyran-4-carbonitrile]
IC50: 2.9 nM

N#CC1(CNc2cccc(-c3cc(N[C@H]4CC[C@H](CNS(=O)(=O)c5ccccc5)CC4)ncc3Cl)n2)CCOCC1 [Compound 496, N-((trans-4-((5′-chloro-6-(((4-cyanotetrahydro-2H-pyran-4-yl)methyl)amino)-[2,4′-bipyridin]-2′-yl)amino)cyclohexyl)methyl) benzenesulfonamide]
IC50: < 0.5 nM

N#CC1(CNc2cccc(-c3cc(N[C@@H]4CC[C@@H](NC5CCOC5)C4)ncc3Cl)n2)CCOCC1 (stereo partly drawn) [Compound 411, 4-(((5′-chloro-2′-(((1R,3R)-3-((tetrahydrofuran-3-yl)amino)cyclopentyl)amino)-[2,4′-bipyridin]-6-yl)amino)methyl)tetrahydro-2H-pyran-4-carbonitrile]
IC50: 1.8 nM

CO[C@H]1C[C@H](Nc2cc(-c3cccc(NCC4(C#N)CCOCC4)n3)c(Cl)cn2)CC[C@H]1N (single isomer, unassigned) [Compound 436]
IC50: < 0.5 nM

COCCN[C@H]1CC[C@H](Nc2cc(-c3nc(NCC4(C#N)CCOCC4)cnc3Cl)c(Cl)cn2)CC1 [Compound 508, 4-(((5-chloro-6-(5-chloro-2-((trans-4-((2-methoxyethyl)amino)cyclohexyl)amino)pyridin-4-yl)pyrazin-2-yl)amino)methyl)tetrahydro-2H-pyran-4-carbonitrile]
IC50: < 0.5 nM

N#CC1(CNc2cccc(-c3cc(N[C@H]4CC[C@H](N5CCCC5)CC4)ncc3Cl)n2)CCOCC1 [Compound 434, 4-(((5′-chloro-2′-((trans-4-(pyrrolidin-1-yl)cydohexyl)amino)-[2,4′-bipyridin]-6-yl)amino)methyl)tetrahydro-2H-pyran-4-carbonitrile]
IC50: ≤ 0.5 nM

N[C@H]1CC[C@H](Nc2cc(-c3cccc(NCC4(O)CCOCC4)n3)c(Cl)cn2)CC1 [Compound 450, 4-(((2′-((trans-4-aminocyclohexyl)amino)-5′-chloro-[2,4′-bipyridin]-6-yl)amino)methyl)tetrahydro-2H-pyran-4-ol]
IC50: 1.5 nM

N#CC1(CNc2cccc(-c3cc(N[C@H]4CC[C@H](CNc5nc6ccccc6o5)CC4)ncc3Cl)n2)CCOCC1 [Compound 504, 4-(((2′-((trans-4-((benzo[d]oxazol-2-ylamino)methyl)cyclohexyl)amino)-5′-chloro-[2,4′-bipyridin]-6-yl)amino)methyl)tetrahydro-2H-pyran-4-carbonitrile]
IC50: 1 nM

COC[C@@H](C)N[C@H]1CC[C@H](Nc2cc(-c3cccc(NCCC#N)n3)c(Cl)cn2)CC1 [Compound 445, 3-((5′-chloro-2′-((trans-4-(((R)-1-methoxypropan-2-yl)amino)cyclohexyl)amino)-[2,4′-bipyridin]-6-yl)amino)propanenitrile]
IC50: 2.1 nM

N#CC1(CNc2cccc(-c3cc(N[C@H]4CC[C@H](NCCC(F)(F)F)CC4)ncc3Cl)n2)CCOCC1 [Compound 433, 4-(((5′-chloro-2′-((trans-4-((3,3,3-trifluoropropyl)amino)cyclohexyl)amino)-[2,4′-bipyridin]-6-yl)amino)methyl)tetrahydro-2H-pyran-4-carbonitrile]
IC50: 0.6 nM

CC(C)N[C@H]1CC[C@H](Nc2cc(-c3cccc(NCC4(C#N)CCOCC4)n3)c(Cl)cn2)CC1 [Compound 412, 4-(((5′-chloro-2′-((trans-4-(isopropylamino)cyclohexyl)amino)-[2,4′-bipyridin]-6-yl)amino)methyl)tetrahydro-2H-pyran-4-carbonitrile]
IC50: < 0.5 nM
